Experimental data: the NIST ThermoML archive (doi:10.1021/acs.jced.5b00474)

Assay: xn = mol fraction of the nth substance listed
Settings: 101 kPa, Liquid; for speed of sound: Frequency=3 MHz, Sing-around technique in a fixed-path interferometer; for mass density: Vibrating tube method

O=C1CCCN1 [2-pyrrolidinone] + ClC(Cl)Cl
Settings | mass density [kg/m3] | speed of sound [m/s]
293.15 K, x1 = 0.1002 | 1457.64 | 1033.4
293.15 K, x1 = 0.199 | 1424.67 | 1074.6
293.15 K, x1 = 0.3019 | 1388.18 | 1124.8
293.15 K, x1 = 0.4027 | 1351 | 1179
293.15 K, x1 = 0.5022 | 1313.31 | 1238.7
293.15 K, x1 = 0.697 | 1235.75 | 1374.5
293.15 K, x1 = 0.7992 | 1194.43 | 1457.3
293.15 K, x1 = 0.9 | 1152.99 | 1548.8
293.15 K, x1 = 1 | 1111.44 | 1649.3
293.16 K, x1 = 0.6054 | 1272.91 | 1307.2
295.15 K, x1 = 0.199 | 1421.54 | –
295.15 K, x1 = 0.3019 | 1385.33 | –
295.15 K, x1 = 0.4027 | 1348.4 | –
295.15 K, x1 = 0.5022 | 1310.93 | –
295.15 K, x1 = 0.6054 | 1270.72 | –
295.15 K, x1 = 0.697 | 1233.71 | –
295.15 K, x1 = 0.7992 | 1192.54 | –
295.15 K, x1 = 0.9 | 1151.23 | –
298.15 K, x1 = 0.1002 | 1449.07 | 1017.4
298.15 K, x1 = 0.199 | 1416.87 | 1059.6
298.15 K, x1 = 0.3019 | 1381.1 | 1109.8
298.15 K, x1 = 0.4027 | 1344.53 | 1164.5
298.15 K, x1 = 0.5022 | 1307.38 | 1223.7
298.15 K, x1 = 0.6054 | 1267.47 | 1292.9
298.15 K, x1 = 0.697 | 1230.66 | 1358.9
298.15 K, x1 = 1 | 1107.35 | 1632.9
298.16 K, x1 = 0.7992 | 1189.72 | 1442.2
298.16 K, x1 = 0.9 | 1148.6 | 1533.3
301.15 K, x1 = 1 | 1104.88 | –
303.15 K, x1 = 0.1002 | 1440.46 | 1001.5
303.15 K, x1 = 0.199 | 1409.07 | 1044
303.15 K, x1 = 0.3019 | 1374 | 1094.7
303.15 K, x1 = 0.4027 | 1338.05 | 1149.5
303.15 K, x1 = 0.5022 | 1301.43 | 1208.6
303.15 K, x1 = 0.697 | 1225.58 | 1343.1
303.15 K, x1 = 0.7992 | 1184.99 | 1426.5
303.15 K, x1 = 0.9 | 1144.21 | 1517.3
303.15 K, x1 = 1 | 1103.26 | 1616.7
303.16 K, x1 = 0.6054 | 1262 | 1278.2
308.15 K, x1 = 0.1002 | 1431.81 | 985.52
308.15 K, x1 = 0.199 | 1401.22 | 1028.3
308.15 K, x1 = 0.4027 | 1331.55 | 1134.4
308.15 K, x1 = 0.5022 | 1295.47 | 1193.5
308.15 K, x1 = 0.6054 | 1256.52 | 1263.1
308.15 K, x1 = 0.697 | 1220.48 | 1327.1
308.15 K, x1 = 0.7992 | 1180.28 | 1411
308.15 K, x1 = 0.9 | 1139.82 | 1501.5
308.15 K, x1 = 1 | 1099.17 | 1600.5
308.16 K, x1 = 0.3019 | 1366.88 | 1079.5
313.15 K, x1 = 1 | 1095.08 | 1584.5
318.16 K, x1 = 1 | 1091 | 1568.6
323.16 K, x1 = 1 | 1086.92 | 1552.8

ClC(Cl)Cl [trichloromethane] + CN1CCCC1=O
Settings | mass density [kg/m3] | speed of sound [m/s]
293.14 K, x2 = 0.1079 | 1437.79 | 1051.6
293.15 K, x2 = 0 | 1488.55 | 1000.9
293.15 K, x2 = 0.1061 | 1438.96 | 1050
293.15 K, x2 = 0.2054 | 1390.74 | 1098.6
293.15 K, x2 = 0.2994 | 1345.24 | 1146
293.15 K, x2 = 0.4032 | 1294.06 | 1198.4
293.15 K, x2 = 0.4961 | 1249.81 | 1248.4
293.15 K, x2 = 0.6006 | 1201.33 | 1307.8
293.15 K, x2 = 0.6854 | 1163.12 | 1359.8
293.15 K, x2 = 0.7986 | 1114.37 | 1430.8
298.14 K, x2 = 0.1079 | 1429.34 | 1034.9
298.14 K, x2 = 0.2994 | 1338.24 | 1130.2
298.14 K, x2 = 0.7986 | 1109.43 | 1413
298.15 K, x2 = 0 | 1479.07 | 984.33
298.15 K, x2 = 0.2054 | 1383.07 | 1082.1
298.15 K, x2 = 0.4032 | 1287.66 | 1181.9
298.15 K, x2 = 0.4961 | 1243.85 | 1231.9
298.15 K, x2 = 0.6006 | 1195.78 | 1290.7
298.15 K, x2 = 0.6854 | 1157.85 | 1342.1
298.16 K, x2 = 0.1061 | 1430.5 | 1033.6
303.14 K, x2 = 0.1079 | 1420.85 | 1018.3
303.14 K, x2 = 0.2994 | 1331.2 | 1114.1
303.14 K, x2 = 0.7986 | 1104.48 | 1395.1
303.15 K, x2 = 0.1061 | 1422 | 1016.3
303.15 K, x2 = 0.2054 | 1375.36 | 1065.2
303.15 K, x2 = 0.4032 | 1281.24 | 1165.2
303.15 K, x2 = 0.4961 | 1237.89 | 1215.2
303.15 K, x2 = 0.6006 | 1190.22 | 1273.5
303.15 K, x2 = 0.6854 | 1152.57 | 1324.2
303.16 K, x2 = 0 | 1469.52 | 967.53
308.14 K, x2 = 0.1079 | 1412.32 | 1001.8
308.14 K, x2 = 0.2994 | 1324.14 | 1098.1
308.14 K, x2 = 0.7986 | 1099.52 | 1377.3
308.15 K, x2 = 0 | 1459.91 | 950.62
308.15 K, x2 = 0.1061 | 1413.45 | 999.25
308.15 K, x2 = 0.2054 | 1367.63 | 1048.3
308.15 K, x2 = 0.4032 | 1274.79 | 1148.5
308.15 K, x2 = 0.4961 | 1231.6 | 1198.6
308.15 K, x2 = 0.6006 | 1184.64 | 1256.3
308.15 K, x2 = 0.6854 | 1147.28 | 1306.2
